Assay results published in patent publication US20060276340A1, “HERBICIDE COMPOSITION COMPRISING PYRIBAMBENZ-PROPYL OR PYRIBAMBENZ-ISOPROPYL” (Zhejiang Chem-Tech Group Co., Ltd., priority 2003, published 2006).
Entries after “also recorded” stand apart in the source; their conditions may differ.

Key:
Format in all cases: in vivo
Polypogon fugax [1] = assay: greenhouse pot test, Tables 1-2; conditions: POLFU 3-4 leaves
Method: (§1) The test soil is a formulated sandy loam soil. 9.5 centimeter diameter pots are used for herbicidal activity test.
(§2) The soil in the pot for the pre-emergence test was sprayed one day after planting. The preparation liquid for the treatment prepared by mixing individual single-herbicides was diluted with water to the desired dosage.
(§3) The pots for post-emergence treatment are placed into a greenhouse and incubated for 7 to 9 days, and then subjected to leave treatment by spraying. The preparation liquid for the treatment prepared by mixing individual single-herbicides was diluted with water to the desired dosage.
(§4) The treated pots stood for one day, then were placed in a greenhouse and watered regularly. The herbicidal activities of the compositions were evaluated by visual examination after incubating for 14 to 21 days.
(§5) The herbicidal activities of the compositions were evaluated by plant symptoms such as stunting, deformity, chlorosis, and whitening. 0 represents that the compositions have no herbicidal effect or have safety to crops. 100 represents that the weeds or crops were completely killed.

Poa annua [2] = assay: greenhouse pot test, Tables 1-2; conditions: POAAN 3 leaves
Method: as §1, §2, §3, §4, §5

Alopecurus aequalis [3] = assay: greenhouse pot test, Tables 1-2
Method: as §1, §2, §3, §4, §5

Digitrria sanguinalis = assay: greenhouse pot test, Tables 1-2; conditions: DIGSA 3 leaves
Method: as §1, §2, §3, §4, §5

Beckmannia syzigachne [4] = assay: greenhouse pot test, Tables 1-2; conditions: BECSY 2 leaves
Method: as §1, §2, §3, §4, §5

rape = assay: safety to crops
Method: The herbicidal activities of the compositions were evaluated by plant symptoms such as stunting, deformity, chlorosis, and whitening. 0 represents that the compositions have no herbicidal effect or have safety to crops. 100 represents that the weeds or crops were completely killed. [table]

Poa annua [5] = assay: greenhouse pot test, post-emergence treatment; conditions: POAAN
Method: as §1, §3, §4, §5

Alopercurus japonicus [6] = assay: greenhouse pot test, post-emergence treatment; conditions: ALOJA
Method: as §1, §3, §4, §5

Veronica didyma = assay: greenhouse pot test, post-emergence treatment; conditions: VERDI
Method: as §1, §3, §4, §5

Galium aparine [7] = assay: greenhouse pot test, post-emergence treatment; conditions: GALAP
Method: as §1, §3, §4, §5

Poa annua [8] = assay: greenhouse pot test, post-emergence early stage treatment
Method: as §1, §3, §4, §5

Cerastium arvense [9] = assay: as above
Method: as §1, §3, §4, §5

Alopercurus japonicus [10] = assay: as above; conditions: ALOJA
Method: as §1, §3, §4, §5

Galium aparine [11] = assay: as above
Method: as §1, §3, §4, §5

Beckmannia syzigachne [12] = assay: as above; conditions: BECSY 2˜3 leaves
Method: as §1, §3, §4, §5

Polypogon fugax [13] = assay: greenhouse pot test, pre-emergence treatment; conditions: POLFU
Method: as §1, §2, §4, §5

Cerastium arvense [14] = assay: greenhouse pot test, pre-emergence treatment; conditions: CERAR
Method: as §1, §2, §4, §5

Alopecurus aequalis [15] = assay: greenhouse pot test, pre-emergence treatment; conditions: ALOAE
Method: as §1, §2, §4, §5

Galium aparine [16] = assay: greenhouse pot test, pre-emergence treatment; conditions: GALAP
Method: as §1, §2, §4, §5

weeds in rape field = assay: weed control in rape field, descriptive statements

CCCOC(=O)c1ccc(NCc2ccccc2Oc2nc(OC)cc(OC)n2)cc1 [Pyribambenz-propyl, propyl 4-({2-[(4,6-dimethoxypyrimidin-2-yl)oxy]benzyl}amino)benzoate]
visual evaluation of weed effects (Polypogon fugax [1]; 30 g/ha): 70%
visual evaluation of weed effects (Polypogon fugax [1]; 45 g/ha): 80%
visual evaluation of weed effects (Poa annua [2]; 30 g/ha): 20%
visual evaluation of weed effects (Poa annua [2]; 45 g/ha): 30%
visual evaluation of weed effects (Alopecurus aequalis [3]; ALOAE 0 leaf, 30 g/ha): 90%
visual evaluation of weed effects (Alopecurus aequalis [3]; ALOAE 0 leaf, 45 g/ha): 90%
visual evaluation of weed effects (Alopecurus aequalis [3]; ALOAE 3 leaves, 30 g/ha): 100%
visual evaluation of weed effects (Alopecurus aequalis [3]; ALOAE 3 leaves, 45 g/ha): 100%
visual evaluation of weed effects (Digitrria sanguinalis; 30 g/ha): 60%
visual evaluation of weed effects (Digitrria sanguinalis; 45 g/ha): 80%
visual evaluation of weed effects (Beckmannia syzigachne [4]; 30 g/ha): 0%
visual evaluation of weed effects (Beckmannia syzigachne [4]; 45 g/ha): 0%
selectivity between rape and weeds (rape; in vivo): good selectivity
safety to crops (rape; rape / objective crops): safety toward rape
visual evaluation of weed effects (Poa annua [5]; 30 g/ha): 85%
visual evaluation of weed effects (Poa annua [5]; 45 g/ha): 90%
visual evaluation of weed effects (Alopercurus japonicus [6]; 30 g/ha): 85%
visual evaluation of weed effects (Alopercurus japonicus [6]; 45 g/ha): 90%
visual evaluation of weed effects (Veronica didyma; 30 g/ha): 20%
visual evaluation of weed effects (Veronica didyma; 45 g/ha): 30%
visual evaluation of weed effects (Galium aparine [7]; 30 g/ha): 20%
visual evaluation of weed effects (Galium aparine [7]; 45 g/ha): 20%
visual evaluation of weed effects (Poa annua [8]; POAAN 2˜3 leaves, 30 g/ha): 85%
visual evaluation of weed effects (Poa annua [8]; POAAN 2˜3 leaves, 45 g/ha): 95%
visual evaluation of weed effects (Poa annua [8]; POAAN, 30 g/ha): 95%
visual evaluation of weed effects (Poa annua [8]; POAAN, 45 g/ha): 98%
visual evaluation of weed effects (Cerastium arvense [9]; CERAR 3˜4 leaves, 30 g/ha): 40%
visual evaluation of weed effects (Cerastium arvense [9]; CERAR 3˜4 leaves, 45 g/ha): 50%
visual evaluation of weed effects (Cerastium arvense [9]; CERAR, 30 g/ha): 80%
visual evaluation of weed effects (Cerastium arvense [9]; CERAR, 45 g/ha): 85%
visual evaluation of weed effects (Alopercurus japonicus [10]; 30 g/ha): 90%
visual evaluation of weed effects (Alopercurus japonicus [10]; 45 g/ha): 90%
visual evaluation of weed effects (Galium aparine [11]; GALAP 7˜8 leaves, 30 g/ha): 0%
visual evaluation of weed effects (Galium aparine [11]; GALAP 7˜8 leaves, 45 g/ha): 30%
visual evaluation of weed effects (Galium aparine [11]; GALAP, 30 g/ha): 20%
visual evaluation of weed effects (Galium aparine [11]; GALAP, 45 g/ha): 20%
visual evaluation of weed effects (Beckmannia syzigachne [12]; 30 g/ha): 50%
visual evaluation of weed effects (Beckmannia syzigachne [12]; 45 g/ha): 70%
visual evaluation of weed effects (Polypogon fugax [13]; 30 g/ha): 60%
visual evaluation of weed effects (Polypogon fugax [13]; 45 g/ha): 80%
visual evaluation of weed effects (Cerastium arvense [14]; 30 g/ha): 70%
visual evaluation of weed effects (Cerastium arvense [14]; 45 g/ha): 80%
visual evaluation of weed effects (Alopecurus aequalis [15]; 30 g/ha): 95%
visual evaluation of weed effects (Alopecurus aequalis [15]; 45 g/ha): 95%
visual evaluation of weed effects (Galium aparine [16]; 30 g/ha): 0%
visual evaluation of weed effects (Galium aparine [16]; 45 g/ha): 40%
weed control (weeds in rape field; Alopecurus aequalis, Alopecurus japonicus, Stellaria aquatica, Stallaria media and Atellaria alsine): high-effectively control; also recorded: effective weed control
effectiveness of control (weeds in rape field; second important weeds in rape field: Poa annua, sclerochloa kengiana, Beckmannia syzigachne, Polypogon fugax, broadleaf Cardlamine hirsuta, Galium aparine, Lapsana apogonoides, Hemistepta lyrata): moderate
